B1: human mSerRS (mitochondrial seryl-tRNA synthetase) (enzyme, UniProt Q9NP81 31-518, looked up)
chain: RRSFTTEKRNRNLLYEYAREGYSALPQLDIERFCACPEEAAHALELRKGELRSADLPAIISTWQELRQLQEQIRSLEEEKAAVTEAVRALLANQDSGEVQQDPKYQGLRARGREIRKELVHLYPREAQLEEQFYLQALKLPNQTHPDVPVGDESQARVLHMVGDKPVFSFQPRGHLEIGEKLDIIRQKRLSHVSGHRSYYLRGAGALLQHGLVNFTFNKLLRRGFTPMTVPDLLRGAVFEGCGMTPNANPSQIYNIDPARFKDLNLAGTAEVGLAGYFMDHTVAFRDLPVRMVCSSTCYRAETNTGQEPRGLYRVHHFTKVEMFGVTGPGLEQSSQLLEEFLSLQMEILTELGLHFRVLDMPTQELGLPAYRKFDIEAWMPGRGRFGEVTSASNCTDFQSRRLHIMFQTEAGELQFAHTVNATACAVPRLLIALLESNQQKDGSVLVPPALQSYLGTDRITAPTHVPLQYIGPNQPRKPGLPGQPAVS
notes: also called mt-SerRS; not shown: GST, N-terminal, cleaved

Columns and labels:
human mSerRS = target: T1, human mSerRS (Homo sapiens, UniProt Q9NP81); assay: cryo-EM structure, […] Å; format: binding; settings: complex with stabilized mtRNASer(UGA) transcript; both active sites of the dimer occupied; pH 7.0, 7.5 mM MgCl2
T1 construct: gene SARS2; aa 31-518, without N-terminal 30 residues; N-terminal GST tag (pGEX-6P1) cut by PreScission protease; expressed in E. coli BL21(DE3); homodimer
T1 sequence (Q9NP81 31-518): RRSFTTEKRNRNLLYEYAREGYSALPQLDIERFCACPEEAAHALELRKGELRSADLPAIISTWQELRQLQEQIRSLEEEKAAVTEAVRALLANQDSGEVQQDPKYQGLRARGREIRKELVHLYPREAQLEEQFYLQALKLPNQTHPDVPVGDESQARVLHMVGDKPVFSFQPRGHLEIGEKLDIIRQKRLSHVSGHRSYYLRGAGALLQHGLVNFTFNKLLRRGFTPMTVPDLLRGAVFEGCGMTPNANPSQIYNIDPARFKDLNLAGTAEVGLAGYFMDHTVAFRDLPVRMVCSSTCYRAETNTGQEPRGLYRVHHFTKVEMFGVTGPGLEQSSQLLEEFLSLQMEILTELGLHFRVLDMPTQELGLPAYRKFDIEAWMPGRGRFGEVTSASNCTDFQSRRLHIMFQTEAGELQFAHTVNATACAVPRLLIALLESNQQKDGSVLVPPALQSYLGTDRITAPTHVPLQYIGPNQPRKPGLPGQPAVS

[1] = target: the molecule itself; assay: mass photometry; 25 nM mSerRS, 125 nM mtRNASer(UGA), 250 nM SerSA; 20 mM HEPES pH 7.0, 100 mM NaCl, 7.5 mM MgCl2, 1 mM DTT

| Molecule | cryo-EM structure, 3.6 Å (human mSerRS) | stoichiometry N [1] |
| --- | --- | --- |
| Nc1ncnc2c1ncn2[C@@H]1O[C@H](COS(=O)(=O)NC(=O)[C@@H](N)CO)[C@@H](O)[C@H]1O [SerSA, 5’-O-[N-(L-seryl)sulfamoyl] adenosine] | Both active sites are occupied by a SerSA ligand |  |
| B1 |  | 2 |
